Laboratory results as given in PMC5471267, “Novel regulatory mechanism of serine biosynthesis associated with 3-phosphoglycerate dehydrogenase in Arabidopsis thaliana” (Scientific Reports, 2017).
“And” between values parts separate entries of the source, which are not always exact repeats. Equal entries are not always repeated. Each block holds one molecule with its values, some of them ahead of it.

What was measured:
[1] = test system: T1, AtPGDH-N2/C1; experiment: 3-PGA oxidation, NADH absorbance at […] nm; Hill fit; type: biochemical, Arabidopsis thaliana; conditions: cooperative, 10 mM 3-PGA, 1 mM NAD+, 0.1 M NaCl, pH 9.0, 25 °C
T1 construct: gene PGDH2; one fused polypeptide: N-terminal half (catalytic domain) of AtPGDH2 + C-terminal half (ASB and ACT domains) of AtPGDH1; tag-free, E. coli; homotetramer

[2] = test system: T2, AtPGDH-N1/C2; experiment: 3-PGA oxidation, NADH absorbance at […] nm; Hill fit; type: biochemical, Arabidopsis thaliana; conditions: activator, cooperative; 10 mM 3-PGA, 1 mM NAD+, 0.1 M NaCl, pH 9.0, 25 °C
T2 construct: gene PGDH1; one fused polypeptide: N-terminal half (catalytic domain) of AtPGDH1 + C-terminal half (ASB and ACT domains) of AtPGDH2; tag-free, E. coli; mainly homotetramer, also multimers up to 20 subunits

[3] = target: T3, AtPGDH3 (Arabidopsis thaliana, UniProt Q9LT69); experiment: 3-PGA oxidation, NADH absorbance at […] nm; Hill fit; type: biochemical
T3 construct: gene PGDH3; mature enzyme, predicted chloroplast transit peptide removed; eXact tag cleaved (tag-free); E. coli BL21 CodonPlus(DE3)-RIL; homotetramer
T3 sequence (Q9LT69 44-588 limits assumed): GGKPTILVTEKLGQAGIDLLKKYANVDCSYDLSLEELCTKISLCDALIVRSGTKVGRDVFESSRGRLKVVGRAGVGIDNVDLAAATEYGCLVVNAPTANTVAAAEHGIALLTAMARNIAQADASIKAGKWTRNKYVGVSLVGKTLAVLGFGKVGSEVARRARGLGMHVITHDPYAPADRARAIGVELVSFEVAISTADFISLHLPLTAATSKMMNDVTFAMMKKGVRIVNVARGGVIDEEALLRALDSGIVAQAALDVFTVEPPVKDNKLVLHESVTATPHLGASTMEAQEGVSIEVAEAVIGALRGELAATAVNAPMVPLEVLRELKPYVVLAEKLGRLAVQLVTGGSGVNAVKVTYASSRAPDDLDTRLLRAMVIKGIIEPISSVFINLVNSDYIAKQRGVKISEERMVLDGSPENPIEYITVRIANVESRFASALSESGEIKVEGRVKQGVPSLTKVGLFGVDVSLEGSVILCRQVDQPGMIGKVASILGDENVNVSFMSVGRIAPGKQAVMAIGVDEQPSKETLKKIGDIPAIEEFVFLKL

[4] = target: T4, AtPGDH1 (Arabidopsis thaliana, UniProt O49485); experiment: 3-PGA oxidation, NADH absorbance at […] nm; Hill fit; type: biochemical
T4 construct: gene PGDH1; mature enzyme, predicted chloroplast transit peptide removed; eXact tag cleaved (tag-free); E. coli BL21 CodonPlus(DE3)-RIL; homotetramer
T4 sequence (O49485 59-603 limits assumed): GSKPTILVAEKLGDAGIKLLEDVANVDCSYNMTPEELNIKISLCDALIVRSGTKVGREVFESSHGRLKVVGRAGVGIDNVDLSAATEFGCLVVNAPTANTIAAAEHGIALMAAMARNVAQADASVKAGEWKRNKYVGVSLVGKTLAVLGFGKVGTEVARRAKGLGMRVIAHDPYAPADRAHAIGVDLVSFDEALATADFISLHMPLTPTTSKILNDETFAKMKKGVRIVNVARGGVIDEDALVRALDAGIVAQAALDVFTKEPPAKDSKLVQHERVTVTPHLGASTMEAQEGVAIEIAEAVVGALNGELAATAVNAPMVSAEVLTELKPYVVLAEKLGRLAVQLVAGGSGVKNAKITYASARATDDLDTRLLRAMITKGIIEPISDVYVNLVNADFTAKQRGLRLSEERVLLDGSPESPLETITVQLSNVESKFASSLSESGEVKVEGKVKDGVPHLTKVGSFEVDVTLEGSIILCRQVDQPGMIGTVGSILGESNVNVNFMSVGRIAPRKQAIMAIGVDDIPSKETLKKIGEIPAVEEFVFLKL

[5] = target: AtPGDH-N2/C1: chimera of the N-terminal half of AtPGDH2 and the C-terminal half of AtPGDH1 (A. thaliana); experiment: SEC; HiLoad 26/600 Superdex 200 preparation grade column, flow rate 1 mL/min, 100 mM sodium phosphate buffer (pH 9.0); native molecular weight estimated from a standard curve of marker proteins; oligomer of the protein with itself
[6] = substrate: O=C(O)[C@H](O)COP(=O)(O)O; experiment: purified protein; type: biochemical, Arabidopsis thaliana; conditions: 1 mM NAD+, 0.1 M NaCl, pH 9.0, 25 °C
[7] = substrate: NC(=O)c1ccc[n+]([C@@H]2O[C@H](COP(=O)(O)OP(=O)(O)OC[C@H]3O[C@@H](n4cnc5c(N)ncnc54)[C@H](O)[C@@H]3O)[C@@H](O)[C@H]2O)c1; experiment: purified protein; type: biochemical, Arabidopsis thaliana; conditions: 10 mM 3-PGA, 0.1 M NaCl, pH 9.0, 25 °C, varied: cofactor
[8] = target: the molecule itself; experiment: SEC; HiLoad 26/600 Superdex 200 preparation grade column, flow rate 1 mL/min, 100 mM sodium phosphate buffer (pH 9.0); native molecular weight estimated from a standard curve of marker proteins; oligomer of the protein with itself

EC50 ([1]; activator): 2600 ± 100 µM
EC50 [2]: 3700 ± 100 µM
EC50 [3]: 4900 ± 200 µM
EC50 [4]: 5300 ± 200 µM
Molecule: C[C@H](N)C(=O)O [L-alanine]

EC50 [3]: 69 µM
EC50 [4]: 23 µM
Molecule: N[C@@H](CCS)C(=O)O [L-homocysteine]

EC50 [3]: 2500 ± 100 µM
EC50 [4]: 670 µM
Molecule: CSCC[C@H](N)C(=O)O [L-methionine]

EC50 [3]: 9200 ± 300 µM
EC50 [4]: 3000 ± 300 µM
Molecule: N[C@@H](CCO)C(=O)O [L-homoserine]

EC50 [3]: 2300 ± 200 µM
EC50 [4]: 7100 ± 200 µM
Molecule: CC(C)[C@H](N)C(=O)O [L-valine]

EC50 ([1]; inhibitor): 2700 ± 100 µM
EC50 [3]: 1300 µM
EC50 [4]: 6600 µM
Molecule: N[C@@H](CO)C(=O)O [L-serine]

stoichiometry N [5]: 4
Molecule: AtPGDH-N2/C1: chimera of the N-terminal half of AtPGDH2 and the C-terminal half of AtPGDH1 (enzyme)

B1: AtPGDH1 (Arabidopsis thaliana) (protein)
chain: T4 sequence (O49485 59-603 limits assumed)
notes: mature enzyme, predicted chloroplast transit peptide removed; eXact tag cleaved (tag-free); E. coli BL21 CodonPlus(DE3)-RIL; homotetramer
Km [6]: 500 ± 50 µM
kcat [6]: 15 s⁻¹
Km [7]: 50 ± 2 µM
kcat [7]: 15 s⁻¹

B2: AtPGDH3 (Arabidopsis thaliana) (protein)
chain: T3 sequence (Q9LT69 44-588 limits assumed)
notes: as for B1
Km [6]: 770 ± 90 µM
kcat [6]: 17 s⁻¹

B3: AtPGDH2 (Arabidopsis thaliana) (protein)
chain: LPKPRILVTEKLGEAGVNLLREFGDVDCSYDLSPEDLKKKVAESDALIVRSGTKVTREVFEAAKGRLKVVGRAGVGIDNVDLQAATEHGCLVVNAPTANTVAAAEHGIALLASMARNVAQADASIKAGKWERSKYVGVSLVGKTLAVMGFGKVGTEVARRAKGLGMTVISHDPYAPADRARALGVDLVSFDQAISTADFVSLHMPLTPATKKVFNDETFSKMKKGVRLINVARGGVIDEDALVRALDAGIVAQAALDVFCEEPPSKDSRLIQHENVTVTPHLGASTKEAQEGVAIEIAEAVAGALKGELSATAVNAPMVAPEVLSELTPYIVLAEKLGRLAVQLASGGKGVQSIRVVYRSARDRDDLDTRLLRAMITKGIIEPISDSYVNLVNADFIAKQKGLRISEERMVVDSSPEYPVDSIQVQILNVESNFAGAVSDAGDISIEGKVKYGVPHLTCVGSFGVDVSLEGNLILCRQVDQPGMIGQVGNILGEQNVNVNFMSVGRTVLRKQAIMAIGVDEEPDNKTLERIGGVSAIEEFVFLKL
notes: mature enzyme, predicted chloroplast transit peptide removed; eXact tag cleaved (tag-free); E. coli BL21 CodonPlus(DE3)-RIL; equilibrium of homooctamers and homotetramers
Km [6]: 1030 ± 70 µM
kcat [6]: 16 s⁻¹
Km [7]: 123 ± 7 µM
kcat [7]: 16 s⁻¹

B4: Arabidopsis thaliana 3-phosphoglycerate dehydrogenase 3 (AtPGDH3), recombinant, without the predicted transit peptide (enzyme, A. thaliana, UniProt Q9LT69 39-588, looked up)
chain: SSSGGGGKPTILVTEKLGQAGIDLLKKYANVDCSYDLSLEELCTKISLCDALIVRSGTKVGRDVFESSRGRLKVVGRAGVGIDNVDLAAATEYGCLVVNAPTANTVAAAEHGIALLTAMARNIAQADASIKAGKWTRNKYVGVSLVGKTLAVLGFGKVGSEVARRARGLGMHVITHDPYAPADRARAIGVELVSFEVAISTADFISLHLPLTAATSKMMNDVTFAMMKKGVRIVNVARGGVIDEEALLRALDSGIVAQAALDVFTVEPPVKDNKLVLHESVTATPHLGASTMEAQEGVSIEVAEAVIGALRGELAATAVNAPMVPLEVLRELKPYVVLAEKLGRLAVQLVTGGSGVNAVKVTYASSRAPDDLDTRLLRAMVIKGIIEPISSVFINLVNSDYIAKQRGVKISEERMVLDGSPENPIEYITVRIANVESRFASALSESGEIKVEGRVKQGVPSLTKVGLFGVDVSLEGSVILCRQVDQPGMIGKVASILGDENVNVSFMSVGRIAPGKQAVMAIGVDEQPSKETLKKIGDIPAIEEFVFLKL
notes: region that corresponds with the mature enzyme, the chloroplast transit peptide having been predicted by comparison with MtPGDH; theoretical molecular weight 57.9 kDa; also called At3g19480
stoichiometry N [8]: 4

B5: Arabidopsis thaliana 3-phosphoglycerate dehydrogenase 2 (AtPGDH2), recombinant, without the predicted transit peptide (enzyme, A. thaliana, UniProt O04130-1 50-624, looked up)
chain: AALKTVEQTTLTEDNRFSTVGSDSDEYNPTLPKPRILVTEKLGEAGVNLLREFGDVDCSYDLSPEDLKKKVAESDALIVRSGTKVTREVFEAAKGRLKVVGRAGVGIDNVDLQAATEHGCLVVNAPTANTVAAAEHGIALLASMARNVAQADASIKAGKWERSKYVGVSLVGKTLAVMGFGKVGTEVARRAKGLGMTVISHDPYAPADRARALGVDLVSFDQAISTADFVSLHMPLTPATKKVFNDETFSKMKKGVRLINVARGGVIDEDALVRALDAGIVAQAALDVFCEEPPSKDSRLIQHENVTVTPHLGASTKEAQEGVAIEIAEAVAGALKGELSATAVNAPMVAPEVLSELTPYIVLAEKLGRLAVQLASGGKGVQSIRVVYRSARDRDDLDTRLLRAMITKGIIEPISDSYVNLVNADFIAKQKGLRISEERMVVDSSPEYPVDSIQVQILNVESNFAGAVSDAGDISIEGKVKYGVPHLTCVGSFGVDVSLEGNLILCRQVDQPGMIGQVGNILGEQNVNVNFMSVGRTVLRKQAIMAIGVDEEPDNKTLERIGGVSAIEEFVFLKL
notes: AtPGDH2 (At1g17745), A. thaliana; region that corresponds with the mature enzyme, the chloroplast transit peptide having been predicted by comparison with MtPGDH; theoretical molecular weight 57.6 kDa; Found as an equilibrium of homooctamers and homotetramers; also called At1g17745
stoichiometry N [8]: 8 and 4

B6: Arabidopsis thaliana 3-phosphoglycerate dehydrogenase 1 (AtPGDH1), recombinant, without the predicted transit peptide (enzyme, A. thaliana, UniProt O49485 55-603, looked up)
chain: STGDGSKPTILVAEKLGDAGIKLLEDVANVDCSYNMTPEELNIKISLCDALIVRSGTKVGREVFESSHGRLKVVGRAGVGIDNVDLSAATEFGCLVVNAPTANTIAAAEHGIALMAAMARNVAQADASVKAGEWKRNKYVGVSLVGKTLAVLGFGKVGTEVARRAKGLGMRVIAHDPYAPADRAHAIGVDLVSFDEALATADFISLHMPLTPTTSKILNDETFAKMKKGVRIVNVARGGVIDEDALVRALDAGIVAQAALDVFTKEPPAKDSKLVQHERVTVTPHLGASTMEAQEGVAIEIAEAVVGALNGELAATAVNAPMVSAEVLTELKPYVVLAEKLGRLAVQLVAGGSGVKNAKITYASARATDDLDTRLLRAMITKGIIEPISDVYVNLVNADFTAKQRGLRLSEERVLLDGSPESPLETITVQLSNVESKFASSLSESGEVKVEGKVKDGVPHLTKVGSFEVDVTLEGSIILCRQVDQPGMIGTVGSILGESNVNVNFMSVGRIAPRKQAIMAIGVDDIPSKETLKKIGEIPAVEEFVFLKL
notes: AtPGDH1 (At4g34200), A. thaliana; region that corresponds with the mature enzyme, the chloroplast transit peptide having been predicted by comparison with MtPGDH; theoretical molecular weight 57.5 kDa; The start of the 'mature' region is a prediction of the authors from an alignment with MtPGDH; also called At4g34200
stoichiometry N [8]: 4
